Measurements from US20260306491A1, “EGFR INHIBITOR FOR TREATING CANCERS COMPRISING ATYPICAL EGFR MUTATIONS” (ORIC Pharmaceuticals, Inc., priority 2023, published 2026).

System: EGFR exon 20 mutated NSCLC with active CNS metastases
Assay: Clinical evaluation in one subject (Example 11)
Assay type: in vivo, human
Conditions: hemifumarate, 75 mg QD
Protocol: A subject having EGFR exon 20 mutated non-small cell lung cancer was enrolled in a clinical study relating to Compound I. The cancer in the subject had been previously treated with chemotherapy (pemetrexed/cisplatin) and amivantamab. The subject presented with four active CNS non-target lesions that were previously untreated, and for which the subject had not undergone prior surgery or radiation treatment. The subject was enrolled in a dosing cohort that received 75 mg QD of Compound I in the form of a hemifumarate salt.

## C=CC(=O)Nc1cc(Nc2cc(N3OCC[C@@H]3c3cc(F)cc(F)c3)ncn2)c(OC)cc1N1CCC(N2CCN(C3CC3)CC2)CC1 [Compound I, N-[2-[4-(4-cyclopropyl-1-piperazinyl)-1-piperidinyl]-5-[[6-[(3R)-3-(3,5-difluorophenyl)-2-isoxazolidinyl]-4-pyrimidinyl]amino]-4-methoxyphenyl]-2-propenamide]
After cycle 1 (28 days)
  Reduction of all target and non-target lesions: 60%
After cycle 1, confirmed after cycle 2
  Reduction of all 4 CNS lesions: 100%
continuing
  Duration of dosing at data cutoff: on dosing cycle 9
Data cutoff Sep. 26, 2023
  EGFR-related adverse events: Grade 2 mucositis and Grade 2 paronychia
End of cycle 2
  Reduction of all target and non-target lesions: 100%
End of cycle 2, confirmed
  Tumor response: complete response
